A word on the EC50: it is the concentration giving half of the maximal effect.

A value given as a limit tells only on which side of the number the result lay.

This assay relates to HT-29 cells (colon cancer cells). The assay is described as follows: In vitro assay for protection of HT-29 cells from necroptosis (TNFα/Smac mimetic/Z-VAD-FMK, CCK-8). In kind it is cell-based. Conditions: Homo sapiens, Protective Activity Against Necroptosis, TNFα/Smac mimetic/Z-VAD-FMK induced, 24 h. From the text: Z′=1−3(SDmin+SDmax)/(AVEmax−AVEmin) • wherein: • Min is the positive control Data, and Max is the negative control DMSO Data. • SD is the standard deviation, and AVE is the average. In Vitro Assay for Protection of HT-29 Cells from Necroptosis:
1) Experimental Materials
DMEM medium was purchased from Gibco; penicillin-streptomycin was purchased from Hyclone; TNFα was purchased from Peprotech; Smac mimetic and Z-VAD-FMK were purchased from Selleck; and CCK-8 was purchased from Medchem Express.
HT-29 cells (colon cancer cells) were cultured in DMEM+10% FBS+penicillin/streptomycin. For the experiment, HT-29 cells in the logarithmic phase were collected and seeded into 96-well plates at a specific density (typically 8×10^3 cells/well for adherent cells). The cells were cultured overnight in an incubator at 37° C. with 5% CO2. On the following day, the test compound was diluted with culture medium to the corresponding concentrations and added into the 96-well plate, with 3 replicate wells for each sample. A solvent control group and a blank control group containing only culture medium were set simultaneously. The spiked cells were induced with a combination of TNFα/Smac mimetic/Z-VAD-FMK for 24 h. Subsequently, 10 μL of CCK8 solution was added to each well, and the cells were incubated in an incubator for 1-3 h. Absorbance was measured at […] using a microplate reader, and the cell necrosis protection rate of the drug was calculated using the following formula:
Cell necrosis protection rate=[(X−C0)/(C−C0)]×100% • where C, C0, and X represent the average absorbance values of the solvent control group, the blank control group, and the drug treatment group, respectively. Finally, a cell viability curve was fitted using Graphpad Prism 5.0 software, and the EC50 value of the test compound for inhibiting necroptosis was calculated.

As to `C[C@H](NC(=O)c1cn(C)c2ccc(-c3ccn4nc(NC(=O)Cn5cccn5)nc4c3)cc12)c1ccc(F)cc1` [Compound 58], the EC50 is under 1 nM.

Consider `C[C@H](NC(=O)c1cn(C)c2ccc(-c3ccn4nc(NC(=O)CN5C6CC7CC(C6)C(O)C5C7)nc4c3)cc12)c1ccc(F)cc1` (stereo partly shown) [Compound 59], for which the EC50 was under 1 nM.

As for `C[C@H](NC(=O)c1cn(C)c2ccc(-c3ccn4nc(NC(=O)CN5CCOC[C@@H]5C)nc4c3)cc12)c1ccc(F)cc1` [Compound 60], the 50% effective concentration (EC50) is under 1 nM.

As for `C[C@H](NC(=O)c1cn(C)c2ccc(-c3ccn4nc(NC(=O)CN5CC[C@H](CO)C5)nc4c3)cc12)c1ccc(F)cc1` [Compound 61], the half-maximal effective concentration (EC50) lay within 1 to 10 nM.

For the compound `C[C@H](NC(=O)c1cn(C)c2ccc(-c3ccn4nc(NC(=O)CN5CC[C@@H](CO)C5)nc4c3)cc12)c1ccc(F)cc1` [Compound 62], the concentration giving a half-maximal response (EC50) is under 1 nM.

Take `C[C@H](NC(=O)c1cn(C)c2ccc(-c3ccn4nc(NC(=O)CC(=O)O)nc4c3)cc12)c1ccc(F)cc1` [Compound 63]: the EC50 lay in the range of 1000 to 10000 nM.

As for `C[C@H](NC(=O)c1cn(C)c2ccc(-c3ccn4nc(NC(=O)CN5CCN(C(=O)OC(C)(C)C)C[C@H]5C)nc4c3)cc12)c1ccc(F)cc1` [Compound 64], the EC50 is under 1 nM.

As for `C[C@H](NC(=O)c1cn(C)c2ccc(-c3ccn4nc(NC(=O)CNCCOCCO)nc4c3)cc12)c1ccc(F)cc1` [Compound 65], the EC50 is under 1 nM.

As to `C[C@H](NC(=O)c1cn(C)c2ccc(-c3ccn4nc(NC(=O)CNCC5CC5)nc4c3)cc12)c1ccc(F)cc1` [Compound 66], the EC50 is under 1 nM.

On to `CC(C)NCC(=O)Nc1nc2cc(-c3ccc4c(c3)c(C(=O)N[C@@H](C)c3ccc(F)cc3)cn4C)ccn2n1` [Compound 67], for which the half-maximal effective concentration (EC50) is under 1 nM.

For the compound `COCCNCC(=O)Nc1nc2cc(-c3ccc4c(c3)c(C(=O)N[C@@H](C)c3ccc(F)cc3)cn4C)ccn2n1` [Compound 68], the EC50 is under 1 nM.

For `C[C@H](NC(=O)c1cn(C)c2ccc(-c3ccn4nc(NC(=O)CN5CCN(CCO)CC5)nc4c3)cc12)c1ccc(F)cc1` [Compound 70], the concentration for a half-maximal effect (EC50) is under 1 nM.

In the case of `C[C@H](NC(=O)c1cn(C)c2ccc(-c3ccn4nc(NC(=O)CN5CC6CCC(C5)O6)nc4c3)cc12)c1ccc(F)cc1` [Compound 71], the half-maximal effective concentration (EC50) is under 1 nM.

For the compound `C[C@H](NC(=O)c1cn(C)c2ccc(-c3ccn4nc(NC(=O)CN5CCOC[C@H]5C)nc4c3)cc12)c1ccc(F)cc1` [Compound 72], the EC50 is under 1 nM.

On to `C[C@H](NC(=O)c1cn(C)c2ccc(-c3ccn4nc(NC(=O)CN5C6CCC5COC6)nc4c3)cc12)c1ccc(F)cc1` [Compound 73], for which the EC50 was under 1 nM.

Regarding `C[C@H](NC(=O)c1cn(C)c2ccc(-c3ccn4nc(NC(=O)CN(C)CCO)nc4c3)cc12)c1ccc(F)cc1` [Compound 74], the 50% effective concentration (EC50) is under 1 nM.

`C[C@H](NC(=O)c1cn(C)c2ccc(-c3ccn4nc(NC(=O)CN5CCOCC5)nc4c3)cc12)c1ccc(F)cc1` [Compound 75]: the 50% effective concentration (EC50) was under 1 nM.

Consider `CCNCC(=O)Nc1nc2cc(-c3ccc4c(c3)c(C(=O)N[C@@H](C)c3ccc(F)cc3)cn4C)ccn2n1` [Compound 76], for which the half-maximal effective concentration (EC50) is under 1 nM.

As for `C[C@H](NC(=O)c1cn(C)c2ccc(-c3ccn4nc(NC(=O)CNC5CCOC5)nc4c3)cc12)c1ccc(F)cc1` (stereo partly shown) [Compound 77], the EC50 is under 1 nM.

Take `C[C@H](NC(=O)c1cn(C)c2ccc(-c3ccn4nc(NC(=O)CN(C)C)nc4c3)cc12)c1ccc(Cl)cc1` [Compound 78]: the EC50 is under 1 nM.

Take `C[C@H](NC(=O)c1cn(C)c2ccc(-c3ccn4nc(NC(=O)CN5CC6CC5CO6)nc4c3)cc12)c1ccc(Cl)cc1` (stereo partly shown) [Compound 79]: the concentration giving a half-maximal response (EC50) was under 1 nM.

For `C[C@H](NC(=O)c1cn(C)c2ccc(-c3ccn4nc(NC(=O)CN5CC(F)(F)C5)nc4c3)cc12)c1ccc(Cl)cc1` [Compound 80], the concentration for a half-maximal effect (EC50) is under 1 nM.

Consider `C[C@H](NC(=O)c1cn(C)c2ccc(-c3ccn4nc(NC(=O)CN5CCOC[C@H]5C)nc4c3)cc12)c1ccc(Cl)cc1` [Compound 81], for which the half-maximal effective concentration (EC50) is under 1 nM.

Take `C[C@H](NC(=O)c1cn(C)c2ccc(-c3ccn4nc(NC(=O)CN5CCOC[C@@H]5C)nc4c3)cc12)c1ccc(Cl)cc1` [Compound 82]: the 50% effective concentration (EC50) is under 1 nM.

Consider `C[C@H](NC(=O)c1cn(C)c2ccc(-c3ccn4nc(NC(=O)CN5CCOCC5)nc4c3)cc12)c1ccc(Cl)cc1` [Compound 83], for which the EC50 is under 1 nM.

`CC1CN(CC(=O)Nc2nc3cc(-c4ccc5c(c4)c(C(=O)N[C@@H](C)c4ccc(Cl)cc4)cn5C)ccn3n2)CCO1` (stereo partly shown) [Compound 84]: the 50% effective concentration (EC50) was under 1 nM.

On to `C[C@@H]1CN(CC(=O)Nc2nc3cc(-c4ccc5c(c4)c(C(=O)N[C@@H](C)c4ccc(Cl)cc4)cn5C)ccn3n2)C[C@H](C)O1` [Compound 85], for which the EC50 was under 1 nM.

In the case of `C[C@H](NC(=O)c1cn(C)c2ccc(-c3ccn4nc(NC(=O)CN5CCC(F)(F)CC5)nc4c3)cc12)c1ccc(Cl)cc1` [Compound 86], the half-maximal effective concentration (EC50) is under 1 nM.

`C[C@H](NC(=O)c1cn(C)c2ccc(-c3ccn4nc(NC(=O)CN5CCSCC5)nc4c3)cc12)c1ccc(Cl)cc1` [Compound 87]: the EC50 is under 1 nM.

Consider `C[C@H](NC(=O)c1cn(C)c2ccc(-c3ccn4nc(NC(=O)CN5CCOCC5)nc4c3)cc12)c1ccco1` [Compound 88], for which the half-maximal effective concentration (EC50) is 1 to 10 nM.

Turning to `C[C@H](NC(=O)c1cn(C)c2ccc(-c3ccn4nc(NC(=O)CN5CCOCC5)nc4c3)cc12)C(C)(C)C` [Compound 90], the EC50 was in the range of 1000 to 10000 nM.

Turning to `C[C@H](NC(=O)c1cn(C)c2ccc(-c3ccn4nc(NC(=O)c5cnn(C)c5)nc4c3)cc12)C(C)(C)C` [Compound 91], the EC50 lay within 1000 to 10000 nM.

Consider `C[C@H](NC(=O)c1cn(C)c2ccc(-c3ccn4nc(NC(=O)C5CC5F)nc4c3)cc12)C(C)(C)C` (stereo partly shown) [Compound 92], for which the 50% effective concentration (EC50) lay within 100 to 1000 nM.

Take `C[C@H](NC(=O)c1cn(C)c2ccc(-c3ccn4nc(NC(=O)C5CC5)nc4c3)cc12)C(C)(C)C` [Compound 93]: the EC50 fell in the range of 100 to 1000 nM.

`Cn1cc(C(=O)N[C@@H](CF)c2ccc(F)cc2)c2cc(-c3ccn4nc(NC(=O)CCl)nc4c3)ccc21` [Compound 94]: the 50% effective concentration (EC50) was under 1 nM.

In the case of `CN1CCN(C(=O)Nc2nc3cc(-c4ccc5c(c4)c(C(=O)N[C@@H](CF)c4ccc(F)cc4)cn5C)ccn3n2)CC1` [Compound 95], the half-maximal effective concentration (EC50) is under 1 nM.

For the compound `Cn1cc(C(=O)N[C@@H](CF)c2ccc(F)cc2)c2cc(-c3ccn4nc(NC(=O)CN5CCCCC5)nc4c3)ccc21` [Compound 96], the EC50 was under 1 nM.

Take `COCC(=O)Nc1nc2cc(-c3ccc4c(c3)c(C(=O)N[C@@H](CF)c3ccc(F)cc3)cn4C)ccn2n1` [Compound 97]: the concentration giving a half-maximal response (EC50) is under 1 nM.

On to `CO[C@@H](C)C(=O)Nc1nc2cc(-c3ccc4c(c3)c(C(=O)N[C@@H](CF)c3ccc(F)cc3)cn4C)ccn2n1` [Compound 98], for which the EC50 was under 1 nM.

Take `CC(C)Nc1nc2cc(-c3ccc4c(c3)c(C(=O)N[C@@H](CF)c3ccc(F)cc3)cn4C)ccn2n1` [Compound 99]: the 50% effective concentration (EC50) is under 1 nM.

As to `CN1CC[C@@H](C(=O)Nc2nc3cc(-c4ccc5c(c4)c(C(=O)N[C@@H](CF)c4ccc(F)cc4)cn5C)ccn3n2)C1` [Compound 100], the EC50 is under 1 nM.

Turning to `CN(C)CC(=O)Nc1nc2cc(-c3ccc4c(c3)c(C(=O)N[C@@H](CF)c3ccc(F)cc3)cn4C)ccn2n1` [Compound 101], the EC50 was under 1 nM.

For the compound `Cn1cc(C(=O)N[C@@H](CF)c2ccc(F)cc2)c2cc(-c3ccn4nc(NC(=O)C#N)nc4c3)ccc21` [Compound 102], the EC50 was under 1 nM.

With `Cn1cc(C(=O)N[C@@H](CF)c2ccc(F)cc2)c2cc(-c3ccn4nc(NC(=O)N5CCOCC5)nc4c3)ccc21` [Compound 103], the half-maximal effective concentration (EC50) is under 1 nM.

As for `Cn1cc(C(=O)N[C@@H](CF)c2ccc(F)cc2)c2cc(-c3ccn4nc(NC(=O)[C@H]5CCCO5)nc4c3)ccc21` [Compound 104], the EC50 lay within 1000 to 10000 nM.

Turning to `Cn1cc(C(=O)N[C@@H](CF)c2ccc(F)cc2)c2cc(-c3ccn4nc(NC(=O)C5(C)CCC5)nc4c3)ccc21` [Compound 105], the EC50 fell in the range of 10 to 100 nM.

On to `C[C@H](NC(=O)c1cn(C)c2ccc(-c3ccn4nc(NC(=O)C5CCOC5)nc4c3)cc12)c1ccc(F)cc1` (stereo partly shown) [Compound 106], for which the EC50 was under 1 nM.

For the compound `C[C@H](NC(=O)c1cn(C)c2ccc(-c3ccn4nc(NC5CCOC5)nc4c3)cc12)c1ccc(F)cc1` (stereo partly shown) [Compound 107], the concentration giving a half-maximal response (EC50) was under 1 nM.

As for `Cn1cc(C(=O)N[C@@H](CF)c2ccc(F)cc2)c2cc(-c3ccn4nc(NCC5CC5)nc4c3)ccc21` [Compound 108], the EC50 is under 1 nM.

Take `Cn1cc(C(=O)N[C@@H](CF)c2ccc(F)cc2)c2cc(-c3ccn4nc(NC(=O)C5CCOC5)nc4c3)ccc21` (stereo partly shown) [Compound 109]: the EC50 fell in the range of 1 to 10 nM.

`Cn1cc(C(=O)N[C@@H](CF)c2ccc(F)cc2)c2cc(-c3ccn4nc(NC(=O)C5CC5(F)F)nc4c3)ccc21` (stereo partly shown) [Compound 110]: the EC50 is under 1 nM.

For the compound `Cn1cc(C(=O)Nc2nc3cc(-c4ccc5c(c4)c(C(=O)N[C@@H](CF)c4ccc(F)cc4)cn5C)ccn3n2)cn1` [Compound 111], the EC50 lay within 1 to 10 nM.
